Experimental data: ChEMBL document CHEMBL1201862, “PubChem BioAssay data set” (2004)
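Briefly, cells in 96-well plates were exposed to five compound concentrations for 48 h, and endpoints were estimated by linear interpolation. GI50: concentration for 50% inhibition of growth.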 The source made the active and inactive calls. Rule as the data show it: active = GI50 up to about 1.1 µM and inactive = higher.

Columns and labels:
Assay in all cases: inhibition of tumour cell growth, NCI panel, 48 h
K562 = system: K562
SW-620 = system: SW-620
MDA-MB-435 = system: MDA-MB-435
SF-295 = system: SF-295
HT-29 = system: HT-29
UACC-257 = system: UACC-257
SF-268 = system: SF-268
MCF7 = system: MCF7
OVCAR-3 = system: OVCAR-3
MDA-MB-231 = system: MDA-MB-231
COLO 205 = system: COLO 205
T47D = system: T47D
EKVX = system: EKVX
RPMI-8226 = system: RPMI-8226
PC-3 = system: PC-3
MOLT-4 = system: MOLT-4
OVCAR-5 = system: OVCAR-5
Hs-578T = system: Hs-578T
HCC 2998 = system: HCC 2998

| SMILES | GI50 (K562) | GI50 (SW-620) | GI50 (MDA-MB-435) | GI50 (SF-295) | GI50 (HT-29) | GI50 (UACC-257) | GI50 (SF-268) | GI50 (MCF7) | GI50 (OVCAR-3) | GI50 (MDA-MB-231) | GI50 (COLO 205) | GI50 (T47D) | GI50 (EKVX) | GI50 (RPMI-8226) | GI50 (PC-3) | GI50 (MOLT-4) | GI50 (OVCAR-5) | GI50 (Hs-578T) | GI50 (HCC 2998) |
| --- | --- | --- | --- | --- | --- | --- | --- | --- | --- | --- | --- | --- | --- | --- | --- | --- | --- | --- | --- |
| Nc1nc(CCl)nc(N2CCOCC2)n1 | 23.4 µM (inactive) | 24.4 µM (inactive) | 29.2 µM (inactive) | 29.8 µM (inactive) | 32.7 µM (inactive) | 63.2 µM (inactive) | 33.7 µM (inactive) | 28.6 µM (inactive) | > 10 µM (inactive) | 28.9 µM (inactive) | 17.9 µM (inactive) | 55.3 µM (inactive) | 17.6 µM (inactive) | 32.4 µM (inactive) | 72.1 µM (inactive) | 26.9 µM (inactive) | 19.9 µM (inactive) | 38.1 µM (inactive) | 17.7 µM (inactive) |
| CCOC(=O)NN(C(=O)OCC)C(C(=O)C1=CCCCC1)N(NC(=O)OCC)C(=O)OCC | > 100 µM (inactive) | > 100 µM (inactive) | > 100 µM (inactive) | > 100 µM (inactive) | > 100 µM (inactive) | > 100 µM (inactive) | > 100 µM (inactive) | > 100 µM (inactive) | > 100 µM (inactive) | > 100 µM (inactive) | > 100 µM (inactive) | > 100 µM (inactive) | > 100 µM (inactive) | > 100 µM (inactive) | > 100 µM (inactive) | > 100 µM (inactive) | > 100 µM (inactive) | > 100 µM (inactive) | > 100 µM (inactive) |
| S=C1/C(=N/c2ccccc2)N(c2ccccc2)/C(=N\c2cccc[n+]2Cc2ccccc2)N1c1ccccc1 | 4.25 µM (inactive) | 13.9 µM (inactive) | 10.6 µM (inactive) | 13.4 µM (inactive) | 16.4 µM (inactive) | 17.3 µM (inactive) | 20.6 µM (inactive) | 18.9 µM (inactive) | 18.5 µM (inactive) | 14.9 µM (inactive) | 17.1 µM (inactive) | 22.8 µM (inactive) | 19.7 µM (inactive) | 17.4 µM (inactive) | 12.1 µM (inactive) | 8.79 µM (inactive) | 15.9 µM (inactive) | 33.9 µM (inactive) | 13.9 µM (inactive) |
| FC(F)(F)c1nc2ccc(SSc3ccc4nc(C(F)(F)F)[nH]c4c3)cc2[nH]1 | 31.9 µM (inactive) | 61.1 µM (inactive) | 40.6 µM (inactive) | 4.41 µM (inactive) | > 10 µM (inactive) | 35.9 µM (inactive) | > 10 µM (inactive) | 35.7 µM (inactive) | 36.6 µM (inactive) | 23 µM (inactive) | 33.9 µM (inactive) | 38.8 µM (inactive) | > 10 µM (inactive) | 25.1 µM (inactive) | 36.6 µM (inactive) | 27.3 µM (inactive) | > 100 µM (inactive) | > 10 µM (inactive) | 38.3 µM (inactive) |
| COc1ccc(N2C(=O)C3c4[nH]c5ccc(OCc6ccccc6)cc5c4C4CCC(c5ccccc5)CC4C3C2=O)cc1 (stereo not given) | 4.37 µM (inactive) | 2.02 µM (inactive) | 3.22 µM (inactive) | 11 µM (inactive) | 11 µM (inactive) | 42.9 µM (inactive) | 6.85 µM (inactive) | 29.6 µM (inactive) | 57.9 µM (inactive) | 6.35 µM (inactive) | 10.8 µM (inactive) | 7.73 µM (inactive) | 19.6 µM (inactive) | 6.61 µM (inactive) | 8.53 µM (inactive) | 14.7 µM (inactive) | 30.5 µM (inactive) | 5.42 µM (inactive) | 4.84 µM (inactive) |
| Cc1ccc2c(O)cc(-c3ccc(C)s3)nc2n1 | 0.423 µM (active) | 0.106 µM (active) | 0.0264 µM (active) | 0.267 µM (active) | 0.526 µM (active) | 16.6 µM (inactive) | 2.34 µM (inactive) | 0.27 µM (active) | 0.34 µM (active) | 1.73 µM (inactive) | 0.459 µM (active) | 0.506 µM (active) | 2.95 µM (inactive) | 0.248 µM (active) | 0.234 µM (active) | 0.624 µM (active) | 1.91 µM (inactive) | 0.297 µM (active) | 0.805 µM (active) |
| COC(=O)/C=C/c1ccc2c(c1)[C@H](C(=O)OC)[C@@H](c1ccc(O)cc1)O2 | 4.06 µM (inactive) | 6.08 µM (inactive) | 3.32 µM (inactive) | 31.4 µM (inactive) | 27.9 µM (inactive) | 32.5 µM (inactive) | 30.3 µM (inactive) | 9.02 µM (inactive) | 8.91 µM (inactive) | 14.8 µM (inactive) | 25.2 µM (inactive) | 28.1 µM (inactive) | 40 µM (inactive) | > 10 µM (inactive) | 23.3 µM (inactive) | 8.45 µM (inactive) | > 100 µM (inactive) | 31.2 µM (inactive) | 10.9 µM (inactive) |
| CC(C)NC(=O)OCc1c(COC(=O)NC(C)C)c(-c2ccc[n+](COC(=O)Cc3ccccc3)c2)n2c1CCC2 | 71 µM (inactive) | 22.5 µM (inactive) | 71.1 µM (inactive) | 35 µM (inactive) | 26.1 µM (inactive) | 58.9 µM (inactive) | 26.9 µM (inactive) | 25.1 µM (inactive) | 41 µM (inactive) | 26.2 µM (inactive) | 41.7 µM (inactive) | 28.7 µM (inactive) | 85.5 µM (inactive) | 23.6 µM (inactive) | 34 µM (inactive) | 6.76 µM (inactive) | 36.1 µM (inactive) | 48.1 µM (inactive) | > 100 µM (inactive) |
| CCc1nc(N)nc(N)c1-c1ccc(Cl)c([N+](=O)[O-])c1 | 0.0156 µM (active) | 0.0475 µM (active) | 0.0752 µM (active) | 0.0637 µM (active) | 0.0588 µM (active) | 6.14 µM (inactive) | 0.239 µM (active) | 0.274 µM (active) | 8.05 µM (inactive) | 24.4 µM (inactive) | 6.71 µM (inactive) | 10.5 µM (inactive) | 3.38 µM (inactive) | 0.676 µM (active) | 0.0897 µM (active) | 0.258 µM (active) | 6.11 µM (inactive) | 28.1 µM (inactive) | 2.95 µM (inactive) |
| CC(NC1=NCCO1)c1ccccc1Cl (stereo not given) | > 100 µM (inactive) | > 100 µM (inactive) | > 100 µM (inactive) | > 100 µM (inactive) | 25.1 µM (inactive) | > 100 µM (inactive) | > 100 µM (inactive) | > 100 µM (inactive) | > 100 µM (inactive) | > 100 µM (inactive) | > 100 µM (inactive) | > 100 µM (inactive) | > 100 µM (inactive) | > 100 µM (inactive) | 91 µM (inactive) | 91.8 µM (inactive) | > 100 µM (inactive) | > 100 µM (inactive) | > 100 µM (inactive) |
| COc1cc2c(c(OC)c1OC)-c1c(cc3c(c1OC)OCO3)CC(C)C(C)(O)C2OC(=O)c1ccccc1 (stereo not given) | 46.3 µM (inactive) | 71.8 µM (inactive) | 55 µM (inactive) | 39.4 µM (inactive) | 25.8 µM (inactive) | 44.9 µM (inactive) | 53.5 µM (inactive) | 44.9 µM (inactive) | 29.9 µM (inactive) | 20.2 µM (inactive) | 22.5 µM (inactive) | 42.3 µM (inactive) | 36 µM (inactive) | 22 µM (inactive) | 26.6 µM (inactive) | 5.58 µM (inactive) | > 100 µM (inactive) | 32.5 µM (inactive) | 22.9 µM (inactive) |
| COC(=O)[C@H](CCSC)NC(=O)c1ccc(CNC(=O)/C=C/c2cccc(Oc3ccccc3)c2)cc1 | 20.7 µM (inactive) | 77.4 µM (inactive) | 14.3 µM (inactive) | > 78.5 µM (inactive) | > 100 µM (inactive) | 11.5 µM (inactive) | > 59.2 µM (inactive) | 38.6 µM (inactive) | 23.3 µM (inactive) | 21.3 µM (inactive) | 21.9 µM (inactive) | 0.27 µM (active) | 67.3 µM (inactive) | 45.5 µM (inactive) | > 75 µM (inactive) | 8.83 µM (inactive) | > 100 µM (inactive) | 59.2 µM (inactive) | 28.5 µM (inactive) |
| C=C(Cl)C(Cl)(CBr)CCCC(C)C (stereo not given) | 26.5 µM (inactive) | 40.1 µM (inactive) | 37.5 µM (inactive) | 15.8 µM (inactive) | 4.42 µM (inactive) | 14.6 µM (inactive) | 15.1 µM (inactive) | 12.4 µM (inactive) | 6.89 µM (inactive) | 20.7 µM (inactive) | 19.4 µM (inactive) | > 21.2 µM (inactive) | 18.3 µM (inactive) | 2.92 µM (inactive) | 13.2 µM (inactive) | > 100 µM (inactive) | 19.9 µM (inactive) | 7.19 µM (inactive) | 19.6 µM (inactive) |
| CCCN1C(=O)/C(=C\c2ccc(OC)c(OC)c2)S/C1=N\c1ccccc1 | > 100 µM (inactive) | > 100 µM (inactive) | > 100 µM (inactive) | 24.2 µM (inactive) | > 100 µM (inactive) | > 100 µM (inactive) | 38.6 µM (inactive) | > 100 µM (inactive) | > 100 µM (inactive) | > 100 µM (inactive) | > 100 µM (inactive) | > 100 µM (inactive) | 67.9 µM (inactive) | > 100 µM (inactive) | > 100 µM (inactive) | > 100 µM (inactive) | > 100 µM (inactive) | 44.4 µM (inactive) | > 100 µM (inactive) |
| c1ccc(C(=NNc2nc3ccccc3[nH]2)c2ccccn2)nc1 | 0.172 µM (active) | 0.0698 µM (active) | 0.348 µM (active) | 2.13 µM (inactive) | 0.0221 µM (active) | 0.145 µM (active) | 0.13 µM (active) | 0.143 µM (active) | 0.0393 µM (active) | 0.166 µM (active) | 0.0257 µM (active) | 0.0131 µM (active) | 0.929 µM (active) | 0.129 µM (active) | 0.224 µM (active) | 0.015 µM (active) | 1.74 µM (inactive) | 7.53 µM (inactive) | 15 µM (inactive) |
